Converted amounts (≈) assume the structure as drawn.
Key:
L1210 leukemia cells = test: Measurement of the action of inhibiting proliferation of L1210 leukemia cell; type: cell-based; conditions: Mus musculus, L1210, 96 h; RPMI medium with 10% FCS, 37° C., 4 days, trypan blue count of surviving cells
Procedure: (1) Measurement of the action of inhibiting Proliferation of L1210 leukemia cell
L1210 leukemia cells were added to an RPMI medium containing 10% FCS (fetal calf serum), and the concentration of the cells was adjusted to […]. Each of the test compounds shown in Table I was dissolved in 99.5% ethanol. Prior to use, the final concentration of the ethanol solution was adjusted to less than 0.1%, and it was added to the culture medium. The culture medium was then maintained at 37° C. in a stationary condition for 4 days. After the cultivation, the number of surviving cells was measured by dyeing with trypan blue. As a control, 0.1% ethanol was used. A dose-reaction curve plotted from the ratios of proliferation against the control, and IC50 was determined.

B16 melanoma = test: Measurement of the antitumor effect on B16 melanoma mouse tumor (tumor weight); type: in vivo; conditions: intraperitoneal, day 1-9, tumor weight on day 18, BDF1 mice
Procedure: (3) Measurement of the antitumor effect on B16 melanoma mouise tumor
For B16 melanoma, BDF1 mice were implanted subcutaneously with 0.2 ml of a 10% tumor homogenate in saline in the left flank. The test compounds were each given intraperitoneally on day 1-9. The activity was assessed by measuring the tumor weight on day 18.

[1] = system: P388 mouse leukemia cells; test: Measurement of the antitumor effect on P388 mouse leukemia tumor (increase of life span); type: in vivo; conditions: intraperitoneal, 9 days, BDF1 mice
Procedure: (2) Measurement of the antitumor effect on P338 mouse leukemia tumor
1×10^6 P388 mouse leukemia cells were intraperitoneally administered to BDF1 mice. After the lapse of 24 hours, each of the test compounds shown in Table II was intraperitoneally administered to the mice for 9 days. The periods of survival of these animals were examined and the increase of their life span (ILS %) was determined.

Compound | IC50 (L1210 leukemia cells) | Proliferation inhibitory rate (B16 melanoma; 5 mg/kg/day) | Proliferation inhibitory rate (B16 melanoma; 10 mg/kg/day) | increase of life span (ILS) ([1]; 5 mg/kg/day) | increase of life span (ILS) ([1]; 10 mg/kg/day) | increase of life span (ILS) ([1]; 20 mg/kg/day)
CC(=O)OC[C@@H](O)[C@H](/C=C/C=C1C(=O)C=CC1(O)CCCCOc1ccccc1)OC(C)=O (stereo partly drawn) [5-[(4S,5R)-4,6-diacetoxy-5-hydroxy-2-hexenylidene]-4-(4-phenoxybutyl)-4-hydroxy-2-cyclopentenone] | 0.2 mg/L (≈ 0.436 µM) | 9.6% | 45.5% |  |  | 
O=C1C=CC(O)(CCCCOc2ccccc2)C1=C/C=C/[C@H](O)[C@H](O)CO (stereo partly drawn) [5-[(4S,5R)-4,5,6-trihydroxy-2-hexenylidene]-4-(4-phenoxybutyl)-4-hydroxy-2-cyclopentenone] | 0.8 mg/L (≈ 2.14 µM) |  |  | 24.5% | 32.7% | 44.9%
CC(=O)OC[C@@H](OC(C)=O)[C@H](/C=C/C=C1C(=O)C=CC1(O)CCCCOc1ccccc1)OC(C)=O (stereo partly drawn) [5-[(4S,5R)-4,5,6-triacetoxy-2-hexenylidene]-4-(4-phenoxybutyl)-4-hydroxy-2-cyclopentenone] | 0.1 mg/L (≈ 0.2 µM) |  |  |  |  | 
O=C1C=CC(O)(CCCCOc2ccccc2)/C1=C\C=C\C(O)CCCO (stereo not shown) [5-[(E)-4,7-dihydroxy-(2E)-heptenylidene]-4-(4-phenoxybutyl)-4-hydroxy-2-cyclopentenone, reference compound] |  | -13.5% | 32.7% | 21.4% | 31.2% | -69.2%
